According to article PMC8932751 (Clinical and Translational Science, 2021):

Columns and labels:
[1] = investigation cohort, 70 patients
[2] = atorvastatin and its metabolites; cited from earlier work

- σ (SD), residual variability (exponential residual error): 0.085
- ωQ (SD), between-subject variability (final PopPK model): 0.715
- ωVc (SD), between-subject variability (final PopPK model): 1.18
- ωVp (SD), between-subject variability (final PopPK model): 0.508
- patients with myalgia at any time during follow-up [1]: 8.6%
SMILES: CC(C)c1c(C(=O)Nc2ccccc2)c(-c2ccccc2)c(-c2ccc(F)cc2)n1CC[C@@H](O)C[C@@H](O)CC(=O)O [atorvastatin]
- fraction of the oral dose excreted in urine [2]: less than 1%
